Ten compounds from ChEMBL document CHEMBL6078622, “Enhancing outer membrane permeability of tetracycline antibiotics in P. aeruginosa using TOB-CIP conjugates” (RSC Med Chem, 2024) can be followed below.

One data set concerns Acinetobacter baumannii. The data set can be described thus: Antibacterial activity against Acinetobacter baumannii ATCC 17978 assessed as inhibition of visible bacterial growth by CLSI based broth-microdilution method. In kind it is functional.
The test system of data set [1] is Pseudomonas aeruginosa. As to the kind of experiment: Antibacterial activity against Pseudomonas aeruginosa PAO1 assessed as inhibition of visible bacterial growth by CLSI based broth-microdilution method. In kind it is functional. On the technique in general: Dilution methods test growth across graded concentrations, often in twofold steps.
For the next data set, the system named is Escherichia coli. The data set can be described thus: Antibacterial activity against Escherichia coli ATCC 25922 assessed as inhibition of visible bacterial growth by CLSI based broth-microdilution method. Format: functional.
In data set [2] the test system is HepG2. The data set can be described thus: Cytotoxicity against human HepG2 cells assessed as reduction in cell viability. Format: functional.
Data set [3] deals with HEK293. The data set can be described thus: Cytotoxicity against HEK293 cells assessed as reduction in cell viability at 7 uM. In kind it is toxicity, cell-based. As to conditions: human, hek293, 7 µM.
For data set [4], the system named is HepG2. The data set can be described thus: Cytotoxicity against human HepG2 cells assessed as inhibition of cell vitality at 162 uM. Set-up: scale not given: the % may be the effect or the level left. In kind it is functional.
Data set [5] deals with Pseudomonas aeruginosa. The data set can be described thus: Synergistic antibacterial activity against Pseudomonas aeruginosa PAO1 assessed as fold change in tigecycline MIC by checkerboard analysis relative to Tigecycline alone. In kind it is functional.
Data set [6] relates to Pseudomonas aeruginosa. As to the kind of experiment: Synergistic antibacterial activity against Pseudomonas aeruginosa PAO1 assessed as fold change in minocycline MIC by checkerboard analysis relative to minocycline alone. In kind it is functional.
The subject of data set [7] is Pseudomonas aeruginosa. The data set can be described thus: Synergistic antibacterial activity against Pseudomonas aeruginosa PAO1 assessed as fold change in doxycycline MIC by checkerboard analysis relative to doxycycline alone. In kind it is functional.
Data set [8] deals with Pseudomonas aeruginosa. As to the kind of experiment: Antibacterial activity against Pseudomonas aeruginosa PA259 assessed as inhibition of visible bacterial growth by CLSI based broth-microdilution method. In kind it is functional.
The subject of data set [9] is Pseudomonas aeruginosa. As to the kind of experiment: Antibacterial activity against Pseudomonas aeruginosa PA100036 assessed as inhibition of visible bacterial growth by CLSI based broth-microdilution method. Format: functional.
In data set [10] the test system is Pseudomonas aeruginosa. The data set can be described thus: Antibacterial activity against Pseudomonas aeruginosa PA264 assessed as inhibition of visible bacterial growth by CLSI based broth-microdilution method. In kind it is functional.
Data set [11] deals with Pseudomonas aeruginosa. The data set can be described thus: Antibacterial activity against Pseudomonas aeruginosa PA095 assessed as inhibition of visible bacterial growth by CLSI based broth-microdilution method. In kind it is functional.
Data set [12] has as its system Pseudomonas aeruginosa. As to the kind of experiment: Antibacterial activity against Pseudomonas aeruginosa PA262 assessed as inhibition of visible bacterial growth by CLSI based broth-microdilution method. In kind it is functional.
Data set [13] deals with Pseudomonas aeruginosa. As to the kind of experiment: Antibacterial activity against Pseudomonas aeruginosa PA101243 assessed as inhibition of visible bacterial growth by CLSI based broth-microdilution method. Format: functional.
Data set [14] deals with Pseudomonas aeruginosa. As to the kind of experiment: Antibacterial activity against Pseudomonas aeruginosa PA200 assessed as inhibition of visible bacterial growth by CLSI based broth-microdilution method. Format: functional.
Data set [15] concerns Pseudomonas aeruginosa. The data set can be described thus: Antibacterial activity against Pseudomonas aeruginosa PA114228 assessed as inhibition of visible bacterial growth by CLSI based broth-microdilution method. In kind it is functional.
Data set [16] relates to Pseudomonas aeruginosa. The data set can be described thus: Synergistic antibacterial activity against Pseudomonas aeruginosa PAO1 assessed as fold change in eravacycline MIC by checkerboard analysis relative to eravacycline alone. In kind it is functional.
Data set [17] has as its system HepG2. As to the kind of experiment: Cytotoxicity against human HepG2 cells assessed as reduction in cell viability at 400 uM. In kind it is functional, cell-based.
Data set [18] relates to HEK293. The data set can be described thus: Cytotoxicity against HEK293 cells assessed as reduction in cell viability at 162 uM. Format: toxicity, cell-based. To be noted: human, hek293, 162 µM.

In brackets after ≈: the same amount, converted by molar mass. Activity calls are given as the source filed them.

As a reminder, the MIC is the smallest concentration in the dilution series that meets the test's criterion for growth inhibition. Take `NC[C@H]1O[C@H](O[C@H]2[C@H](O)[C@@H](O[C@H]3O[C@H](CO)[C@@H](O)[C@H](N)[C@H]3O)[C@H](N)C[C@@H]2N)[C@H](N)C[C@@H]1O` [TOBRAMYCIN]: the minimal inhibitory concentration (MIC) in the data set on Acinetobacter baumannii was found to be 0.5 µg/mL (≈ 1.07 µM); in the data set with Pseudomonas aeruginosa [1], 0.5 µg/mL (≈ 1.07 µM); with Escherichia coli, 2 µg/mL (≈ 4.28 µM).
For the compound `Cl.Cl.Cl.Cl.Cl.Cl.NC[C@H]1O[C@H](O[C@H]2[C@H](OCCOCCOCCOCCNC(=O)c3cn(C4CC4)c4cc(N5CCNCC5)c(F)cc4c3=O)[C@@H](O[C@H]3O[C@H](CO)[C@@H](O)[C@H](N)[C@H]3O)[C@H](N)C[C@@H]2N)[C@H](N)C[C@@H]1O`, the MIC in the data set with Acinetobacter baumannii is greater than 128 µg/mL; with Pseudomonas aeruginosa [1], greater than 120 µg/mL; in the data set with Escherichia coli, greater than 128 µg/mL. The Activity in the data set with HepG2 [2] is given as 60%; in the data set with HEK293 [3] it was “Non-toxic”; in the data set on HepG2 [4], 60%.
As to `CC(=O)NCCCCCCCCCCCCO[C@@H]1[C@@H](O[C@H]2O[C@H](CO)[C@@H](O)[C@H](N)[C@H]2O)[C@H](N)C[C@H](N)[C@H]1O[C@H]1O[C@H](CN)[C@@H](O)C[C@H]1N.Cl.Cl.Cl.Cl.Cl`, the figures for the MIC with Acinetobacter baumannii, with Pseudomonas aeruginosa [1] and in the data set on Escherichia coli were greater than 128 µg/mL, greater than 120 µg/mL and greater than 128 µg/mL, respectively. Also, the “fold change (FC)” value in the data set with Pseudomonas aeruginosa [5] is recorded as 1; with Pseudomonas aeruginosa [6] it was 4; with Pseudomonas aeruginosa [7] it was 8.
As for `C[C@H]1c2cccc(O)c2C(=O)C2=C(O)[C@]3(O)C(=O)C(C(N)=O)=C(O)[C@@H](N(C)C)[C@@H]3[C@@H](O)[C@@H]21` [DOXYCYCLINE ANHYDROUS], the MIC is 64 µg/mL (≈ 144 µM) with Pseudomonas aeruginosa [8]; greater than 128 µg/mL in the data set on Pseudomonas aeruginosa [9]; greater than 64 µg/mL with Pseudomonas aeruginosa [10]; 64 µg/mL (≈ 144 µM) in the data set with Pseudomonas aeruginosa [11]; greater than 512 µg/mL in the data set with Pseudomonas aeruginosa [12]; 16 µg/mL (≈ 36 µM) in the data set on Pseudomonas aeruginosa [13]. Moreover, the MIC turned out to be 1 µg/mL (≈ 2.25 µM) with Pseudomonas aeruginosa [14] and 64 µg/mL (≈ 144 µM) with Pseudomonas aeruginosa [15].
With `Cl.Cl.Cl.Cl.Cl.Cl.NC[C@H]1O[C@H](O[C@H]2[C@H](OCCCCCCCCNC(=O)c3cn(C4CC4)c4cc(N5CCNCC5)c(F)cc4c3=O)[C@@H](O[C@H]3O[C@H](CO)[C@@H](O)[C@H](N)[C@H]3O)[C@H](N)C[C@@H]2N)[C@H](N)C[C@@H]1O`, the MIC with Acinetobacter baumannii was greater than 128 µg/mL; with Pseudomonas aeruginosa [1], greater than 120 µg/mL; in the data set with Escherichia coli, greater than 128 µg/mL. Further, the “fold change (FC)” value in the data set with Pseudomonas aeruginosa [5], in the data set with Pseudomonas aeruginosa [16], in the data set on Pseudomonas aeruginosa [6] and in the data set on Pseudomonas aeruginosa [7] was 4 each time. Further, the Activity in the data set with HepG2 [2] was 69%; in the data set on HEK293 [3] it was “Non-toxic”; in the data set with HepG2 [4], 55%.
For the compound `CN(C)[C@@H]1C(O)=C(C(N)=O)C(=O)[C@@]2(O)C(O)=C3C(=O)c4c(O)c(NC(=O)CN5CCCC5)cc(F)c4C[C@H]3C[C@@H]12` [ERAVACYCLINE], the MIC was 32 µg/mL (≈ 57.3 µM) in the data set on Pseudomonas aeruginosa [8]; 32 µg/mL (≈ 57.3 µM) in the data set with Pseudomonas aeruginosa [9]; 32 µg/mL (≈ 57.3 µM) in the data set with Pseudomonas aeruginosa [10]; 32 µg/mL (≈ 57.3 µM) in the data set on Pseudomonas aeruginosa [11]; 64 µg/mL (≈ 115 µM) with Pseudomonas aeruginosa [12]; 8 µg/mL (≈ 14.3 µM) in the data set on Pseudomonas aeruginosa [13]. In addition, the MIC is 0.5 µg/mL (≈ 0.895 µM) in the data set on Pseudomonas aeruginosa [14] and 16 µg/mL (≈ 28.6 µM) with Pseudomonas aeruginosa [15].
As to `CN(C)c1cc(NC(=O)CNC(C)(C)C)c(O)c2c1C[C@H]1C[C@H]3[C@H](N(C)C)C(O)=C(C(N)=O)C(=O)[C@@]3(O)C(O)=C1C2=O` [TIGECYCLINE], the MIC in the data set on Pseudomonas aeruginosa [8] came to 32 µg/mL (≈ 54.6 µM); in the data set on Pseudomonas aeruginosa [9] it was 64 µg/mL (≈ 109 µM); with Pseudomonas aeruginosa [10], 32 µg/mL (≈ 54.6 µM); with Pseudomonas aeruginosa [11] it was 32 µg/mL (≈ 54.6 µM); with Pseudomonas aeruginosa [12], 64 µg/mL (≈ 109 µM); in the data set on Pseudomonas aeruginosa [13], 8 µg/mL (≈ 13.7 µM). Also, the MIC in the data set on Pseudomonas aeruginosa [14] worked out at 1 µg/mL (≈ 1.71 µM); with Pseudomonas aeruginosa [15], 64 µg/mL (≈ 109 µM).
Consider `Cl.Cl.Cl.Cl.Cl.Cl.NC[C@H]1O[C@H](O[C@H]2[C@H](OCc3ccc(-c4ccc(CNC(=O)c5cn(C6CC6)c6cc(N7CCNCC7)c(F)cc6c5=O)cc4)cc3)[C@@H](O[C@H]3O[C@H](CO)[C@@H](O)[C@H](N)[C@H]3O)[C@H](N)C[C@@H]2N)[C@H](N)C[C@@H]1O`, for which the minimal inhibitory concentration (MIC) in the data set on Acinetobacter baumannii is greater than 128 µg/mL; with Pseudomonas aeruginosa [1], greater than 120 µg/mL; with Escherichia coli, greater than 128 µg/mL. The “fold change (FC)” value in the data set with Pseudomonas aeruginosa [5], in the data set with Pseudomonas aeruginosa [16], in the data set with Pseudomonas aeruginosa [6] and in the data set with Pseudomonas aeruginosa [7] was 16 each time. Moreover, the outcome in the data set with HepG2 [17] was Active. Besides, the Activity is 88% with HepG2 [2], “Non-toxic” in the data set with HEK293 [3], 27% in the data set with HEK293 [18] and 40% in the data set with HepG2 [4].
On to `CN(C)c1ccc(O)c2c1C[C@H]1C[C@H]3[C@H](N(C)C)C(O)=C(C(N)=O)C(=O)[C@@]3(O)C(O)=C1C2=O` [MINOCYCLINE], for which the MIC in the data set on Pseudomonas aeruginosa [8] was 128 µg/mL (≈ 280 µM); in the data set on Pseudomonas aeruginosa [9], 128 µg/mL (≈ 280 µM); in the data set on Pseudomonas aeruginosa [10] it was 128 µg/mL (≈ 280 µM); in the data set with Pseudomonas aeruginosa [11], 64 µg/mL (≈ 140 µM); in the data set on Pseudomonas aeruginosa [12] it was 256 µg/mL (≈ 560 µM); with Pseudomonas aeruginosa [13], 8 µg/mL (≈ 17.5 µM). The figures for the MIC in the data set with Pseudomonas aeruginosa [14] and in the data set on Pseudomonas aeruginosa [15] were 0.5 µg/mL (≈ 1.09 µM) and 256 µg/mL (≈ 560 µM), respectively.
`CCCCCCCCCCCCNC(=O)c1cn(C2CC2)c2cc(N3CCNCC3)c(F)cc2c1=O.Cl`: the MIC was greater than 128 µg/mL in the data set on Acinetobacter baumannii, greater than 120 µg/mL in the data set with Pseudomonas aeruginosa [1] and greater than 128 µg/mL in the data set on Escherichia coli.
